Results reported in PubChem BioAssay AID743030 (The Scripps Research Institute Molecular Screening Center, 2013).

Columns and labels:
Assay in all cases: fraction bound to plasma proteins and brain, late-stage follow-up, ADME assay for V1a-R antagonist project, biochemical, LC-MS, human, mouse, rat plasma, rat brain (AID 743030)
Conditions in all cases: equilibrium dialysis, plasma/brain binding, 16 h, at 2.5 µM; call rule not given here
Mouse plasma proteins = system: Mouse plasma proteins
Rat plasma proteins = system: Rat plasma proteins
Human plasma proteins = system: Human plasma proteins
Rat brain tissue = system: Rat brain tissue

Measured: fraction bound

O=C(C1CCN(c2ccc(Cl)cn2)CC1)N(CC1CC1)c1ccc(Cl)cc1
active: Mouse plasma proteins 97.7% | Rat plasma proteins 99.5% | Human plasma proteins 99.4% | Rat brain tissue > 99.5%
